Tests used:
RNH activity of HIV-1 = settings: read-out: IC50, inhibition of RNH activity; previously reported; cited from earlier work
HIV-1 RT [1] = target: T1, HIV-1 RT (Human immunodeficiency virus type 1 group M subtype B, UniProt P03366); assay: Direct binding assay using intrinsic protein fluorescence; settings: KD^fluor
HIV-1 RT [2] = target: T1, HIV-1 RT; assay: Direct binding assay using surface plasmon resonance; settings: for Kd: KD^SPR
HIV-1 integrase = assay: Inhibition of HIV-1 integrase; assay type: biochemical; settings: data not shown
E. coli RNase H = settings: cited from earlier work
[3] = test system: RNase H cleavage by HIV-1 RT; settings: cited from earlier work
[4] = test system: HIV-1 RT with benzoyl-L-phenylalanine in place of Tyr501; settings: cited from earlier work
[5] = Enzyme + MgCl2, free enzyme (no substrate)

Row | Compound | IC50 (RNH activity of HIV-1) [µM] | Kd (HIV-1 RT [1]; Enzyme + MgCl2 + ds RNA (non-hydrolyzable substrate analog)) [µM] | Kd (HIV-1 RT [1]; [5]) [µM] | IC50 (HIV-1 RT [2]) [µM] | Kd (HIV-1 RT [2]; [5]) [µM] | Kd (HIV-1 RT [2]; Enzyme, no metal (MgCl2 omitted, EDTA added)) [µM] | Fold difference of IC50, RNH of HIV-1 RT vs HIV-1 integrase (HIV-1 integrase) | Fold difference of IC50, RNH of HIV-1 RT vs E. coli RNase H (E. coli RNase H) [fold] | Inhibition of polymerase-independent secondary cuts in the RNA strand [3] | Inhibition of RNase H cleavage with pre-formed Enzyme·Substrate complex ([3]; pre-steady state conditions, ref Bielhartz et al) | Inhibition of polymerase dependent cleavage ([3]; ref Bielhartz et al) | Effect of substituting benzoyl-L-phenylalanine for Tyr501 on inhibition [4]
1 | CC(C)c1ccccc(=O)c1O [α-thujaplicin] | 50 |  |  |  |  |  |  |  |  |  |  | 
2 | CC(C)c1ccc(O)c(=O)c(O)c1 [β-thujaplicinol, 2,7-dihydroxy-4-(propan-2-yl)-cyclohepta-2,4,6-trien-1-one] | 0.21 | 0.185 ± 0.008 | 1 | > 100 | 6 ± 1 | > 100 | over 10 fold | ~300 | inhibits polymerase-independent “secondary cuts” | unable to inhibit RNase H cleavage | not an inhibitor of polymerase dependent cleavage | conferred resistance to inhibition

Source: paper PMC3365588 (Structure(London, England:1993), 2009)
